Five compounds from patent publication US20230174584A1, “Antibiotic Compounds” (priority 2019, published 2023) can be followed below.

Holding throughout (type): cell-based, Staphylococcus aureus
The subject of one test is MRSA USA300. Briefly: MIC assay in the presence of sheep serum. Particulars: MRSA USA300, TSB + 0.002% p80 + 50% sheep serum. An outline of the steps: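 Broth microdilution MIC per CLSI against MRSA USA300, 2-fold compound dilutions, 10^6 CFU/mL inoculum (pre-mixing), polypropylene plates, 37 °C for 24 h with shaking. Medium was TSB + 0.002% polysorbate 80 + 50% sheep serum; MIC as median of at least triplicates, in μg/mL.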

A further test relates to S. aureus ATCC29213. The experiment in a line: UDP-MurNAc-pentapeptide accumulation assay. To be noted: S. aureus ATCC29213, 5 μM, 1 h. The procedure:
An overnight culture of bacterial suspension (S. aureus ATCC29213, E. faecium E155, E. faecium E7314 and E. faecium E980) was diluted 100-fold in TSB supplemented with 0.002% p80 and cultured at 37° C. until the optical density of the suspension reached a level equivalent to the 0.5 McFarland standard. Chloramphenicol was added at a final concentration of 130 μg/mL and the culture was incubated for an additional 15 min at 37° C. […] The cultures were incubated at 37° C. for 1 h, after which they were centrifuged to pellet the bacteria. The supernatant was removed and the pellets were resuspended in 1 mL MQ-H2O. The samples were boiled at 100° C. for 15 minutes and subsequently centrifuged at 12000 rpm for 30 minutes. The supernatant of the samples was lyophilized and redissolved in 250 μL buffer A (50 mM ammonium bicarbonate, 5 mM NEt3, pH 8.3). Samples were analyzed by analytical RP-HPLC using a 0-25% buffer B (MeOH) gradient over 25 minutes.
An UDP-MurNAc-pentapeptide accumulation assay was performed to elucidate part of the mechanism of action of the compounds. UDP-MurNAc-pentapeptide is the last soluble precursor of peptidoglycan cell wall biosynthesis. In this assay, live cells accumulate this last soluble precursor when treated with compounds that interfere with the membrane bound stages of peptidoglycan biosynthesis (Sass, V. et al. Human beta-defensin 3 inhibits cell wall biosynthesis in Staphylococci. Infect. Immun. 78, 2793-2800 (2010)).

For a further test, the system named is VRS1. The experiment in a line: MIC assay, VISA and VRSA panel. Particulars: strain VRS1. The procedure: (§1) The antibacterial activity of the compounds was tested against a panel of bacteria, including Gram-positive bacteria (S. aureus ATCC29213, S. aureus USA300, S. aureus LIM-2, NR-45881, S. aureus HIP13419, NR-46413, E. faecium E155, E. faecium E7314, E. faecium E980, E. faecalis E1246, E. faecalis E7406 and S. pneumonia 153). The antibacterial activity of the compounds was further tested against S. aureus NY-155, NR-46236, S. aureus HIP12864, NR-46074, S. aureus 880 (BR-VRSA), NR-49120, E. faecalis E1246, E. faecalis E7604, as well as some Gram-negative bacteria (Escherichia coli and Klebsiella pneumoniae). Minimum inhibitory concentrations (MICs) in μg/mL were performed according to the CLSI guidelines. From glycerol stocks, bacterial strains were cultured on blood agar plates and incubated at 37° C. for 18 h. A single colony was transferred to tryptic soy broth (TSB) with 0.002% polysorbate 80 (p80). For the Enterococcus, VISA and VRSA strains, the cultures were grown at 37° C. until the optical density of the suspension reached a level equivalent to the 0.5 McFarland standard. The bacterial suspensions were diluted in TSB with 0.002% p80 to reach a bacterial cell density of 10^6 CFU/mL. In case of the other (vancomycin-sensitive) S. aureus strains, the direct colony suspension method was used. For these strains, after transfer of the colonies to TSB with 0.002% p80, they were immediately diluted to 10^6 CFU/mL, instead of incubated prior to this dilution. In the case of S. pneumonia, direct colony suspension was used by immediately suspending multiple colonies from fresh blood agar plates in TSB+0.002% p80 to an OD600 of 0.5 and subsequent dilution to 10^6 CFU mL^−1 in TSB+0.002% p80+5% lysed horse blood. Antibiotic dilutions for this strains were also made in TSB+0.002% p80+5% lysed horse blood. Both agar and microplates containing S. pneumonia were incubated at 37° C. with 5% CO2 for 24 h with constant shaking (600 rpm). […] The cultures were grown to exponential phase (OD600=0.5) at 37° C. […] In polypropylene 96-well microtiter plates, test compounds were added in biological triplicates and serial diluted 2-fold by transfer and mixing from one well to the next to achieve a final volume of 50 μL per well. An equal volume of bacterial suspension (10^6 CFU mL^−1) was added to the wells. The plates were sealed with breathable membranes and incubated at 37° C. for 24 h with constant shaking (600 rpm). In polypropylene microtiter plates, 100 μL of the test compounds was added to the first row in biological triplicates, and 50 μL of media was added to the other wells. The compounds were subjected to serial dilution by transfer and mixing of 50 μL from one well to the next. Subsequently, 50 μL of bacterial suspension (10^6 CFU/mL) was added to the wells. The plates were sealed with breathable membranes and incubated at 37° C. for 24 h with constant shaking (600 rpm). Positive growth control consisted of wells with bacterial suspension and without antibiotic. Negative growth control consisted of solely media without bacterial suspension or antibiotic. The MICs were determined from the median of a minimum of triplicates.

The test system of the next test is NRS18. Briefly: MIC assay, VISA and VRSA panel. Particulars: strain NRS18. The procedure:
as §1

Another test concerns NRS19. The experiment in a line: MIC assay, VISA and VRSA panel. Particulars: strain NRS19. The procedure:
as §1

Another test has as its system VRS7. The experiment in a line: MIC assay, VISA and VRSA panel. Particulars: strain VRS7. The protocol: as §1
For a further test, the system named is VRS4. Briefly: MIC assay, VISA and VRSA panel. Particulars: strain VRS4. The procedure: as §1
In a further test the test system is VRS11a. The experiment in a line: MIC assay, VISA and VRSA panel. Particulars: strain VRS11a. The protocol: as §1
The next test deals with VRS11b. The experiment in a line: MIC assay, VISA and VRSA panel. To be noted: strain VRS11b. The protocol: as §1
In another test the test system is NRS51. Briefly: MIC assay, VISA and VRSA panel. Particulars: strain NRS51. The procedure:
as §1

For another test, the system named is VRS9. Briefly: MIC assay, VISA and VRSA panel. Particulars: strain VRS9. The procedure: as §1
Another test concerns VRSA3b. The experiment in a line: MIC assay, VISA and VRSA panel. To be noted: strain VRSA3b. The protocol: as §1
For another test, the system named is VRS2. Briefly: MIC assay, VISA and VRSA panel. To be noted: strain VRS2. The procedure:
as §1

A further test relates to NRS17. Briefly: MIC assay, VISA and VRSA panel. Particulars: strain NRS17. The procedure:
as §1

SMILES strings stand for the structures. In brackets after ≈: the same amount, converted by molar mass.

Consider `CCCCCCCNC(N)=Nc1ccc(CN[C@@]2(C)C[C@H](O[C@H]3[C@H](Oc4c5cc6cc4Oc4ccc(cc4Cl)[C@@H](O)[C@@H](NC(=O)[C@@H](CC(C)C)NC)C(=O)N[C@@H](CC(N)=O)C(=O)N[C@H]6C(=O)N[C@H]4C(=O)N[C@H](C(=O)N[C@H](C(=O)O)c6cc(O)cc(O)c6-c6cc4ccc6O)[C@H](O)c4ccc(c(Cl)c4)O5)O[C@H](CO)[C@@H](O)[C@@H]3O)O[C@@H](C)[C@H]2O)cc1` [Compound 5], for which the MIC in the test on MRSA USA300 was determined as 0.031 mg/L; with VRS1, 16 mg/L (≈ 9.44 µM); in the test on NRS18 it was 0.125 mg/L (≈ 0.0738 µM); with NRS19 it was 0.063 mg/L (≈ 0.0372 µM); in the test on VRS7, 4 mg/L (≈ 2.36 µM); with VRS4, 8 mg/L (≈ 4.72 µM). Moreover, the MIC against VRS11a came to 16 mg/L (≈ 9.44 µM); against VRS11b, 16 mg/L (≈ 9.44 µM); with NRS51, 0.031 mg/L (≈ 0.0183 µM); with VRS9, 16 mg/L (≈ 9.44 µM); in the test on VRSA3b, 1 mg/L (≈ 0.59 µM); with VRS2, 0.25 mg/L (≈ 0.148 µM). Further, in the test on NRS17, the MIC came out at 0.25 mg/L (≈ 0.148 µM). In the test on S. aureus ATCC29213, the “accumulation of UDP-MurNAc-pentapeptide” value is “accumulation of UDP-MurNAc-pentapeptide”.
`CCCCCCCCNC(N)=Nc1ccc(CN[C@@]2(C)C[C@H](O[C@H]3[C@H](Oc4c5cc6cc4Oc4ccc(cc4Cl)[C@@H](O)[C@@H](NC(=O)[C@@H](CC(C)C)NC)C(=O)N[C@@H](CC(N)=O)C(=O)N[C@H]6C(=O)N[C@H]4C(=O)N[C@H](C(=O)N[C@H](C(=O)O)c6cc(O)cc(O)c6-c6cc4ccc6O)[C@H](O)c4ccc(c(Cl)c4)O5)O[C@H](CO)[C@@H](O)[C@@H]3O)O[C@@H](C)[C@H]2O)cc1` [Compound 6]: in the test on MRSA USA300, the MIC amounted to 0.063 mg/L. Besides, in the test with S. aureus ATCC29213, the “accumulation of UDP-MurNAc-pentapeptide” value is given as “accumulation of UDP-MurNAc-pentapeptide”.
On the same counts, the results for `CCCCCCCCCNC(N)=Nc1ccc(CN[C@@]2(C)C[C@H](O[C@H]3[C@H](Oc4c5cc6cc4Oc4ccc(cc4Cl)[C@@H](O)[C@@H](NC(=O)[C@@H](CC(C)C)NC)C(=O)N[C@@H](CC(N)=O)C(=O)N[C@H]6C(=O)N[C@H]4C(=O)N[C@H](C(=O)N[C@H](C(=O)O)c6cc(O)cc(O)c6-c6cc4ccc6O)[C@H](O)c4ccc(c(Cl)c4)O5)O[C@H](CO)[C@@H](O)[C@@H]3O)O[C@@H](C)[C@H]2O)cc1` [Compound 7] are 0.063 mg/L and “accumulation of UDP-MurNAc-pentapeptide”.
On to `CCCCCCN(CCCCCC)C(N)=Nc1ccc(CN[C@@]2(C)C[C@H](O[C@H]3[C@H](Oc4c5cc6cc4Oc4ccc(cc4Cl)[C@@H](O)[C@@H](NC(=O)[C@@H](CC(C)C)NC)C(=O)N[C@@H](CC(N)=O)C(=O)N[C@H]6C(=O)N[C@H]4C(=O)N[C@H](C(=O)N[C@H](C(=O)O)c6cc(O)cc(O)c6-c6cc4ccc6O)[C@H](O)c4ccc(c(Cl)c4)O5)O[C@H](CO)[C@@H](O)[C@@H]3O)O[C@@H](C)[C@H]2O)cc1` [Compound 12], for which the MIC with MRSA USA300 amounted to 0.063 mg/L; in the test with VRS1, 4 mg/L (≈ 2.27 µM); in the test on NRS18, 0.25 mg/L (≈ 0.142 µM); against NRS19 it was 0.25 mg/L (≈ 0.142 µM); against VRS7 it was 2 mg/L (≈ 1.13 µM); in the test on VRS4 it was 2 mg/L (≈ 1.13 µM). For the same compound, the MIC with VRS11a was 4 mg/L (≈ 2.27 µM); in the test on VRS11b, 4 mg/L (≈ 2.27 µM); against NRS51, 0.125 mg/L (≈ 0.0708 µM); with VRS9, 4 mg/L (≈ 2.27 µM); with VRSA3b, 0.25 mg/L (≈ 0.142 µM); in the test with VRS2, below 0.016 mg/L. The same compound displayed an MIC in the test with NRS17 of 0.5 mg/L (≈ 0.283 µM).
As for `CN[C@H](CC(C)C)C(=O)N[C@H]1C(=O)N[C@@H](CC(N)=O)C(=O)N[C@H]2C(=O)N[C@H]3C(=O)N[C@H](C(=O)N[C@H](C(=O)O)c4cc(O)cc(O)c4-c4cc3ccc4O)[C@H](O)c3ccc(c(Cl)c3)Oc3cc2cc(c3O[C@@H]2O[C@H](CO)[C@@H](O)[C@H](O)[C@H]2O[C@H]2C[C@](C)(NCc3ccc(N=C(N)NC/C=C(\C)CCC=C(C)C)cc3)[C@H](O)[C@H](C)O2)Oc2ccc(cc2Cl)[C@H]1O` [Compound 14], the minimum inhibitory concentration (MIC) with MRSA USA300 was determined as 0.063 mg/L. Also, in the test with S. aureus ATCC29213, the “accumulation of UDP-MurNAc-pentapeptide” value was “accumulation of UDP-MurNAc-pentapeptide”.
